Laboratory results: US5298614A, “Size limited double stranded poly I poly(cytidylate/4-thiouridylate)” (Nippon Shinyaku Co. Ltd., priority 1986, dated 1994)
Marks after values point to notes of the source that are not given here.

Columns and labels:
HeLa S3 = assay: Proliferation inhibiting action in nude mice bearing human tumor cells; type: in vivo, human tumor cells in nude mice (BALB/c); conditions: test sample 100 μg/mouse i.v., 5-FU 25 mg/kg i.p., twice a week for four weeks
Protocol: (§1) Each 2.5×10^6 of cell strain HeLa S3 derived from human uterus neck and cell strain Hep-2 derived from throat cancer cells were transplanted under the skin of the nude abdomen of male nude mice 5 weeks old derived from BALB/c and, on the 7th to 10th day after the transplantation, living cohesion of tumor was confirmed. Then 100 μg/mouse of test sample (intravenously) and 25 mg/kg of 5-FU (intraperitoneally) were administered twice a week for four weeks. Tumor was extracted on the fourth week after the admininstration and the weight were measured.
(§2) The test samples used were the same as that in the above (1).

Hep-2 = assay: as above; type: in vivo, human tumor cells in nude mice (BALB/c); conditions: test sample 100 μg/mouse i.v., 5-FU 25 mg/kg i.p., twice a week for four weeks
Protocol: as §1, §2

[1] = test system: interleukin 1 (cohesive cells from human peripheral blood); assay: Inducing activity of interleukin 1, 3H-thymidine in-take into PHA-stimulated mice thymus cells; type: cell-based; conditions: samples 100α/ml; interleukin 1 1.25 units/ml; saline control 3370
Protocol: Mononuclear particles were separated from normal human heparin-added peripheral blood by specific gravity centrifugation method using Ficoll-Hypaque (Pharmacia, Ficollpaque, trademark), the numbers were adjusted to 5×10^6 /ml in a 10% FCS-added RPMI medium, placed in a plastic dish, incubated at 37° C. for one hour, and the cohesive cells were used as an interleukin 1-producing source.
The sample to be tested was added to the 5×10^5 /ml of single particle, incubated at 37° C. for 24 hours, and the interleukin 1 activity in the supernatant liquid was determined by measuring a ^3 H-thymidine in-take method into a PHA-stimulated mice thymus cells using a proliferation ability of the thymus cells as a target. The control was physiological saline solution.

[2] = 50% melting temperature (Tm) and hyperchromicity, UV absorbance at 260 nm; type: physicochemical; conditions: neutral condition, aqueous buffer solution containing 0.1M sodium ion
Protocol: If the stabilization of the double stranded complex formation in nucleic acid polymer is shown with reference to the 50% melting temperature (Tm value), poly I:poly C has a 59.0° C. under a neutral condition in aqueous buffer solution containing 0.1M sodium ion while the SH-substituted nucleic acid derivative containing 4-thiouridine (n=20) and the S-substituted nucleic acid derivative (n=20) have a 59.5° C. and 59.3° C., respectively.
Among the nucleic acid derivatives obtained by the above example, those with 50 to 2,000 residue numbers of molecular size distribution were taken and their fusing curves were measured.
Sample I or II (0.7 OD/ml) in 10 mM Tris buffer (pH 7.5) containing 0.1M sodium chloride was warmed, at the rising rate of 2° C./4 minutes, from 20° C. to 90° C., the ultraviolet absorbancy at each temperature was measured at the wavelength of 260 nm, and an increase of ultraviolet absorbancy by a hyperchromicity was represented by a relative ratio giving the state at 20° C. as a base. A Beckmann-DU-8B spectrophotometer was used for the measurement. Melting of the nucleic acid derivatives was gradually observed during 35° C. to 55° C. and, at around 59° C., a sudden fusion curve was obtained. […]

venom phosphodiesterase = assay: Resistance against hydrolysis, time until hydrolysis arrives at 50%; type: in vitro ADME; conditions: venom phosphodiesterase enzymatic reaction
Protocol: Then the resistance against hydrolysis by RNase was compared in terms of the time ratio until the hydrolysis arrives at 50%. Thus, under conditions such as venom phosphodiesterase enzymatic reaction, poly I:poly C was 50 minutes while those of nucleic acid derivatives containing 4-thiouridine (SH group) and its S--S bond (n=20) are 60 minutes and, by contrast, those of nucleic acid derivatives (n=20) containing uridine (OH group) were as short as 20 minutes.

Pyrogen test to rabbits = type: in vivo; conditions: 0.2 microgram/kg i.v., 4 hours after injection
Protocol: Injection of poly I:poly C in vivo has been known to be pyrogenic. […] On the contrary, the nucleic acid derivatives of the present invention (both SH and S--S substances in the above cytotoxic experiment) show only 0.25° C. rise in body temperature on average and the result of the pyrogenic test was negative. In those experiments, three rabbits per group were used and a solution of the sample (0.2 microgram/kg) in 10 ml of physiological saline solution was intravenously injected beneath the ear of the rabbits and the body temperature at 4 hours after the injection was observed.

## O=c1[nH]cc(F)c(=O)[nH]1 [5-FU, 5-fluorouracil]
HeLa S3
  Inhibition Rate (%): 47%
HeLa S3; control 3.85 ± 0.23
  Weight (g) ± S.E. of tumor: 2.06 ± 0.35 g
Hep-2
  Inhibition Rate (%): 30%
Hep-2; control 0.88 ± 0.07
  Weight (g) ± S.E. of tumor: 0.56 ± 0.12 g

## Interleukin 1
[1]
  In-Take Amount: 12517 DPM (× 10^4)

## polyinosinic acid-polycitydylic acid [poly I:poly C]
[2]
  50% melting temperature (Tm value): 59.0 °C
Venom phosphodiesterase
  time until the hydrolysis arrives at 50%: 50 min
Pyrogen test to rabbits
  body temperature rise, average: 1.45 °C
